Laboratory results: patent US12691124B2, “Methods of controlling and improving brain health” (ICAHN SCHOOL OF MEDICINE AT MOUNT SINAI, priority 2019, dated 2026)

Tests used:
microglia in vivo = experiment: TRAP of microglia from striatum and cerebellum after chronic IBET858; set-up: species or system mouse; settings: 30 mg/kg i.p. once daily, two weeks
Description: Cx3Cr1^CreErt2/+; Efl10a mice were orally gavaged 5 times with tamoxifen to induce the expression of gfp-labelled ribosome. Mice were intraperitoneally injected with IBET858 (30 mg/kg) or vehicle control once daily for two weeks. Four hours after either an acute (1 injection) or chronic (2 weeks) injection, mice were decapitated and used for TRAP.
To better understand how IBET858 affects microglia in their homeostatic state, translating ribosome affinity purification (TRAP) after chronic IBET858 administration was used. TRAP is ideal because it prevents the induction of immediate early and pro-inflammatory genes caused by other isolation protocols which can occlude homeostatic transcriptional profiles. Ayata et al., “Epigenetic Regulation of Brain Region-Specific Microglia Clearance Activity,” Nature Neuroscience 21:1049-1060 (2018), which is hereby incorporated by reference in its entirety. As observed in vitro, microglial lineage is maintained after chronic BET inhibition IBET858 as indicated by expression of Hexb, Fcrls, and Fcer1g in either the striatum or cerebellum (FIG. 4B). […] This is especially important because loss of these region-specific gene expression signatures is highly detrimental to brain function. Ayata et al., “Epigenetic Regulation of Brain Region-Specific Microglia Clearance Activity,” Nature Neuroscience 21:1049-1060 (2018), which is hereby incorporated by reference in its entirety. […] Therefore it is likely that BET inhibition can prevent or modulate pathological microglial activation in vivo as occurs during neurodegeneration.

BRD2 = biological target: T1, BRD2 (Mus musculus, UniProt Q7JJ13); experiment: ChIP sequencing of BRD2 chromatin occupancy in neurons; assay type: cell-based
T1 construct: Primary cortical neurons express BRD2/3/4, with BRD2 and BRD4 being the most abundant; endogenous in cells; host or cells: primary cortical neuronal cultures (mouse)
T1 sequence (Q7JJ13 whole entry): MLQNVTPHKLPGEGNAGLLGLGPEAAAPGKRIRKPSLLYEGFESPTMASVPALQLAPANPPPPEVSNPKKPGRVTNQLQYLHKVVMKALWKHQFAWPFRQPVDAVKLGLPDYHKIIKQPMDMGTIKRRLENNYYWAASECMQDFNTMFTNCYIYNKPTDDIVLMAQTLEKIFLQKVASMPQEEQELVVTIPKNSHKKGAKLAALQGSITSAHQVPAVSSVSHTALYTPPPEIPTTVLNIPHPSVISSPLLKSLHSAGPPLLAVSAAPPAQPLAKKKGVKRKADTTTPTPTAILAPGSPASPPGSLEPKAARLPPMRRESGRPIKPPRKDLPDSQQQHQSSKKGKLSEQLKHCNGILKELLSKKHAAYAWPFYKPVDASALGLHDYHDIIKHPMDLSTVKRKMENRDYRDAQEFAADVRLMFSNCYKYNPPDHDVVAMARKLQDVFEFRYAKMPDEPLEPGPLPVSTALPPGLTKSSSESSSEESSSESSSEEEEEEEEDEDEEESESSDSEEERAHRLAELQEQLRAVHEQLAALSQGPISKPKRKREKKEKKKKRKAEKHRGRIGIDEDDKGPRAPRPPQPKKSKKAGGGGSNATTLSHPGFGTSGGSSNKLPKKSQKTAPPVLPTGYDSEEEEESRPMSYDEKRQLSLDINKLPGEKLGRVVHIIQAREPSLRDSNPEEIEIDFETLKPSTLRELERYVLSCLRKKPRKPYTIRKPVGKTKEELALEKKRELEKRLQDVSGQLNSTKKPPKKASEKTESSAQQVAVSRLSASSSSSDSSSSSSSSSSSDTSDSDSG
Description: Chromatin Immunoprecipitation with Sequencing. Primary cortical neuronal cultures were washed once with PBS then fixed for 10 minutes with a 1% formaldehyde solution in PBS with protease inhibitors (Sigma #P8340) at room temperature. Fixation was quenched adding glycine to a final concentration of 0.125M (5 minutes, room temperature). 10e6 fixed cells were resuspended in 1 ml of lysis buffer (50 mM Hepes KOH, pH7.5, 140 mM NaCl, 1 mM EDTA, 10% glycerol, 0.5% NP-40, 0.25% Triton X-100) and 10 ul of protease inhibitor cocktail (PIC). Samples were rotated for 10 minutes at 4 degrees then spun at 1350 g at 4 C for 10 minutes. Pellets were resuspended in 1 ml of lysis buffer 2 (10 mM Tris-HCl pH8.0, 200 mM NaCl, 1 mM EDTA, 0.5 mM EGTA) and 10 ul PIC.). 5e6 nuclei were sonicated in lysis buffer 3 (10 mM Tris-HCl pH8.0, 100 mM NaCl, 1 mM EDTA, 0.5 mM EGTA, 0.1% Na-Deoxicholate, 0.5% N-Lauroylsarcosine) at 4 degrees for 5 cycles of 30 seconds ON/30 seconds OFF using the Diagenode bioruptor. After, 30 ul of 10% Triton-X100 was added to each sample and then spun for 15 minutes at 20,000 g at 4 degrees. Sonication efficiency was checked by running the samples on a 2% agarose gel to confirm enrichment for fragments from 200-500 bps.
Streptavidin M-280 dynabeads were blocked with 0.5% BSA solution and coupled to 7 ug of antibody (Brd4 #Ab84778, Brd2 Bethyl #A302-583A, Pol2 Ser5 #Ab5408) for at least 8 hours at 4 degrees, rotating. Antibody-coupled beads were then added to sonicated chromatin (20e6 cells for Brd2/Brd4, 10e6 for Pol2) and incubated overnight at 4 degrees. After washing the IPs eight times with wash buffer (50 mM Hepes-KOH pH7.6, 100 mM LiCl, 1 mM EDTA, 1% NP-40, 0.7% Na-Deoxycholate) and once with TE buffer (10 mM Tris-HCl, 1 mM EDTA, 50 mM NaCl), Chromatin was eluted from magnetic beads in 200 ul elution buffer ([…] Tris-HCl pH8.0, 10 mM EDTA, 1% SDS) for 45 minutes at 65 degrees. Samples were de-crosslinked overnight at 65 degrees and proteins and RNA were removed by incubating with RNAse and proteinase k. Samples were purified using the Qiagen PCR purification kit according to the manufacturers protocol.
Samples were end-repaired using the End-IT DNA End-Repair Kit (#ER0720). After 45 minutes incubation, samples were purified using the Qiagen PCR Clean up kit as described above. Samples were adenylated using a reaction mix (200 uM dATP, 1× Klenow buffer NEB2, Klenow Fragment (3′ to 5′ exo-), NEB M0212L) and incubating at 37 degrees for 30 minutes. […] Raw sequencing reads were then aligned to the mouse mm9 genome using the default settings of Bowtie (v2.2.0)87. Only uniquely mapped reads were retained, and the alignments were subsequently filtered using the SAMtools package (v0.1.19)88 to remove duplicate reads. […]

CC(=O)N1c2ccc(-c3ccc(CN4CCCCC4)cc3)cc2[C@H](Nc2ccccc2)CC1C (stereo in doubt) [IBET858]
microglial lineage (Hexb, Fcrls, Fcer1g expression) in striatum or cerebellum (microglia in vivo): maintained
regional microglial transcriptomic heterogeneity (microglia in vivo): also unaffected
striatal microglial inflammatory genes (Ccr5, Cd180, Gpr84, Wdfy1) (microglia in vivo): suppressed
genes that lose BRD2 at the transcriptional start site (BRD2; 6 h IBET858): 1497 genes
genes with gain of BRD2 at the transcriptional start site (BRD2; 6 h IBET858): 828 genes
loci with reduced occupancy of BRD2 (BRD2; DIV7, 6 h IBET858): 2099 loci
loci with increased occupancy of BRD2 (BRD2; day 7, 6 h IBET858): 1680 loci
